Results as given in article PMC5421785, “Citrullination only infrequently impacts peptide binding to HLA class II MHC” (PLoS ONE, 2017).
Like-named read-outs stand apart in the source and are kept apart here. Square brackets hold non-standard residues; d marks the D form. Ends that are not written are not given here. Peptide text beside a SMILES is read from it. Cit = NC(=O)NCCC[C@H](N)C(=O)O

Assays:
[1] = target: T1, HLA-DRB1*01:01 (Homo sapiens, UniProt P01903+P01911, A100R/D57E/F55L/F60I/F76Y/I96L/L162R/M171V/P40L/Q125E/R42F/V115G/Y59C); assay: HLA class II peptide binding, inhibition of radiolabeled peptide binding to purified MHC
T1 construct: EBV transformed homozygous cell lines were used as sources of MHC molecules; endogenous in cells; host or cells: EBV transformed homozygous cell lines

[2] = target: T2, HLA-DRB1*04:01 (Homo sapiens, UniProt P01903+P01911, A100K/A169T/F76Y/I96L/K127E/L162R/M171V/N62H/P40V/Q125Y/R42H/S133A/S149N/S66Y/V115G/V209L/W38E); assay: as above
T2 construct: EBV transformed homozygous cell lines were used as sources of MHC molecules; endogenous in cells; host or cells: EBV transformed homozygous cell lines

[3] = citrullinated 15-mer peptide (X = citrulline), purified HLA-DRB1*01:01, read-out: DRB1*01:01 binding capacity, Cit peptide (IC50 nM)
[4] = citrullinated 15-mer peptide (X = citrulline), purified HLA-DRB1*04:01, read-out: DRB1*04:01 binding capacity, Cit peptide (IC50 nM)
[5] = read-out: DRB1*01:01 binding capacity, WT peptide (IC50 nM)
[6] = read-out: DRB1*04:01 binding capacity, WT peptide (IC50 nM)
[7] = citrullinated 15-mer (X), purified MHC, inhibition of radiolabeled peptide binding, dash = IC50 >40,000 nM, read-out: DRB1*01:01 binding capacity, Cit peptide (IC50 nM)
[8] = citrullinated 15-mer (X), purified MHC, inhibition of radiolabeled peptide binding, dash = IC50 >40,000 nM, read-out: DRB1*04:01 binding capacity, Cit peptide (IC50 nM)
[9] = wild-type (unmodified Arg) 15-mer peptide, purified HLA-DRB1*01:01, read-out: DRB1*01:01 binding capacity, WT peptide (IC50 nM)
[10] = wild-type (unmodified Arg) 15-mer peptide, purified HLA-DRB1*04:01, read-out: DRB1*04:01 binding capacity, WT peptide (IC50 nM)

Molecule | IC50 [1, 5] [nM] | IC50 [2, 6] [nM] | IC50 [1, 9] [nM] | IC50 [2, 10] [nM] | further results
CSCC[C@H](NC(=O)[C@@H](NC(=O)CNC(=O)[C@@H](N)CC(C)C)C(C)C)C(=O)N[C@@H](CCC(N)=O)C(=O)NCC(=O)N1CCC[C@H]1C(=O)N[C@@H](CCSC)C(=O)NCC(=O)N1CCC[C@H]1C(=O)N[C@@H](CCSC)C(=O)NCC(=O)N1CCC[C@H]1C(=O)N[C@@H](CCCNC(N)=O)C(=O)NCC(=O)O [LGVMQGPMGPMGPXG] (H-LGVMQGPMGPMGP[Cit]G-OH) |  |  |  |  | IC50 [1, 3]: 220 nM; IC50 [2, 4]: > 40000 nM
SKPDLTAALRDVRQQ [Vimentin 261 WT] | 5190 | > 40000 |  |  | 
C[C@H](NC(=O)[C@@H](NC(=O)CNC(=O)[C@@H]1CCCN1C(=O)CNC(=O)CN)[C@@H](C)O)C(=O)N[C@@H](CO)C(=O)N[C@@H](CCCNC(=N)N)C(=O)N1CCC[C@H]1C(=O)N[C@@H](CO)C(=O)N[C@@H](CO)C(=O)N[C@@H](CO)C(=O)N[C@@H](CCCNC(N)=O)C(=O)N[C@@H](CO)C(=O)N[C@@H](Cc1ccc(O)cc1)C(=O)O [GGPGTASRPSSSXSY] (H-GGPGTASRPSSS[Cit]SY-OH) |  |  |  |  | IC50 [1, 7]: 13800 nM; IC50 [2, 8]: > 40000 nM
LPGARGLTGRPGDAG [Collagen 556 WT] |  |  | 851 | > 40000 | 
CC(C)C[C@H](NC(=O)CNC(=O)[C@H](CCCNC(=N)N)NC(=O)[C@H](CCC(=O)O)NC(=O)CNC(=O)[C@@H]1CCCN1C(=O)[C@H](CCC(=O)O)NC(=O)CNC(=O)[C@H](C)N)C(=O)N[C@@H](CCCCN)C(=O)NCC(=O)N[C@@H](Cc1c[nH]cn1)C(=O)N[C@@H](CCCNC(N)=O)C(=O)NCC(=O)N[C@@H](Cc1ccccc1)C(=O)O [AGEPGERGLKGHXGF] (H-AGEPGERGLKGH[Cit]GF-OH) |  |  |  |  | IC50 [1, 3]: 594 nM; IC50 [2, 4]: > 40000 nM
REGSPGADGPPGRDG [Collagen 1036 WT] |  |  | > 40000 | > 40000 | 
GDRGEAGAQGPMGPS [Collagen 1086 WT] |  |  | 9550 | > 40000 | 
TVETRDGQVINETSQ [Vimentin 446 WT] | 17900 | 9590 |  |  | 
CSCC[C@H](NC(=O)[C@H](CCC(=O)O)NC(=O)[C@H](CCC(=O)O)NC(=O)[C@@H](N)CCC(=O)O)C(=O)N[C@@H](CCCNC(N)=O)C(=O)N[C@@H](CCC(=O)O)C(=O)N[C@@H](CC(C)C)C(=O)N[C@@H](CCCNC(=N)N)C(=O)N[C@@H](CCCNC(=N)N)C(=O)N[C@@H](CCC(N)=O)C(=O)N[C@H](C(=O)N[C@@H](CC(=O)O)C(=O)N[C@@H](CCC(N)=O)C(=O)N[C@@H](CC(C)C)C(=O)N[C@H](C(=O)O)[C@@H](C)O)C(C)C [EEEMXELRRQVDQLT] (H-EEEM[Cit]ELRRQVDQLT-OH) |  |  |  |  | IC50 [1, 7]: 1250 nM; IC50 [2, 8]: 6570 nM
DVRQQYESVAAKNLQ [Vimentin 271 WT] | 10 | 6370 |  |  | 

Now from value to molecule, other results behind:

IC50 [1, 5] [nM] | IC50 [2, 6] [nM] | IC50 [1, 9] [nM] | IC50 [2, 10] [nM] | Molecule | further results
3720 | > 40000 |  |  | CC(C)C[C@H](NC(=O)[C@H](CCCNC(=N)N)NC(=O)[C@H](CO)NC(=O)[C@H](CCCCN)NC(=O)CNC(=O)[C@H](CCC(N)=O)NC(=O)CNC(=O)[C@H](CCCCN)NC(=O)[C@H](CC(C)C)NC(=O)[C@H](CCC(N)=O)NC(=O)[C@@H](N)CCC(=O)O)C(=O)NCC(=O)N[C@@H](CC(=O)O)C(=O)N[C@@H](CC(C)C)C(=O)N[C@@H](Cc1ccc(O)cc1)C(=O)O [Vimentin 136 WT] | 
 |  | 32200 | > 40000 | ARGAQGPPGATGFPG [Collagen 886 WT] | 
